Patent US20210024542A1 (Torcept Therapeutics, Inc., priority 2018, published 2021)

What was measured:
NCIH446 = test: OncoPanel cell proliferation assay, NCIH446; type: cell-based, human; conditions: for Cell Count Activity Area: NCIH446, scale 0-10
Experimental: (§1) Cells were grown in RPMI 1640, 10% FBS, 2 mM L-alanyl-L-glutamine, 1 mM Na pyruvate, or a special medium. Cells were seeded into 384-well plates and incubated in a humidified atmosphere of 5% CO2 at 37° C. Compounds were added the day following cell seeding. At the same time, a time zero untreated cell plate was generated. After a 3-day incubation period, cells were fixed and stained to allow fluorescence imaging of nuclei. Compounds (1 mM stock solutions) were serially diluted in half-log steps from the highest test concentration ([…]), and assayed over 10 concentrations with a maximum assay concentration of 0.1% DMSO. Automated fluorescence microscopy was carried out using a Molecular Devices ImageXpress Micro XL high-content imager, and images were collected with a 4× objective. 16-bit TIFF images were acquired and analyzed with MetaXpress 5.1.0.41 software.
(§2) Cell proliferation was measured by the fluorescence intensity of an incorporated nuclear dye. The output is referred to as the relative cell count, where the measured nuclear intensity is transformed to percent of control (POC) using the following formula: […]
(§3) Cellular response parameters were calculated using nonlinear regression to a sigmoidal single-site dose response model:
(§4) Where y is a response measured at concentration x, A and B are the lower and upper limits of the response, C is the concentration at the response midpoint (EC50), and D is the Hill Slope (Ref. 1).
(§5) EC50 is the test compound concentration at the curve inflection point or half the effective response (parameter C of the fitted curve solution). GI50 is the concentration needed to reduce the observed growth by half (midway between the curve maximum and the time zero value). “Cell Count Activity Area” is an estimate of the integrated area above the curve (Barretina, et al. The Cancer Cell Line Encyclopedia enables predictive modelling of anticancer drug sensitivity. Nature 483: 603-607). […] In rare instances, values <0 or >10 may be observed. […] Curve-fitting, calculations, and report generation was performed using a custom data reduction engine and MathIQ based software (AIM).

SW684 = test: OncoPanel cell proliferation assay, SW684; type: cell-based, human
Experimental: as §1, with “Cells” for “Cells were grown in RPMI 1640, 10% FBS, 2 mM L-alanyl-L-glutamine, 1 mM Na pyruvate, or a special medium. Cells”
as §2, §3, §4
(§6) GI50 is the concentration needed to reduce the observed growth by half (midway between the curve maximum and the time zero value). […] In rare instances, values <0 or >10 may be observed. […] Curve-fitting, calculations, and report generation was performed using a custom data reduction engine and MathIQ based software (AIM).

Hs 852.T = test: OncoPanel cell proliferation assay, Hs 852.T; type: cell-based, human; conditions: for Cell Count Activity Area: scale 0-10
Experimental: as §1, §2, §3, §4, §5

A101D = test: OncoPanel cell proliferation assay, A101D; type: cell-based, human; conditions: for Cell Count Activity Area: scale 0-10
Experimental: as §1, §2, §3, §4, §5

AGS = test: OncoPanel cell proliferation assay, AGS; type: cell-based, human; conditions: scale 0-10
Experimental: as §1, §2, §3, §4, §5

CEM-C1 = test: OncoPanel cell proliferation assay, CEM-C1; type: cell-based, human; conditions: for Cell Count Activity Area: CEM-C1, scale 0-10; for IC50: Homo sapiens, 72 h, CEM-C1, 3-day incubation, read-out: Cell Count IC50
Experimental: as §1, §2, §3, §4, §5

DMS114 = test: OncoPanel cell proliferation assay, DMS114; type: cell-based, human
Experimental: as §1, with “Cells” for “Cells were grown in RPMI 1640, 10% FBS, 2 mM L-alanyl-L-glutamine, 1 mM Na pyruvate, or a special medium. Cells”
as §2, §3, §4, §6

SCaBER = test: OncoPanel cell proliferation assay, SCaBER; type: cell-based, human; conditions: scale 0-10
Experimental: as §1, §2, §3, §4, §5

SNU-C2B = test: OncoPanel cell proliferation assay, SNU-C2B; type: cell-based, human; conditions: for Cell Count Activity Area: scale 0-10
Experimental: as §1, §2, §3, §4, §5

U-87 MG = test: OncoPanel cell proliferation assay, U-87 MG; type: cell-based, human; conditions: for Cell Count Activity Area: scale 0-10
Experimental: as §1, §2, §3, §4, §5

AsPC-1 = test: OncoPanel cell proliferation assay, AsPC-1; conditions: for Cell Count Activity Area: AsPC-1, scale 0-10
Experimental: (§7) Cells were seeded into 384-well plates and incubated in a humidified atmosphere of 5% CO2 at 37° C. Compounds were added the day following cell seeding. At the same time, a time zero untreated cell plate was generated. After a 3-day incubation period, cells were fixed and stained to allow fluorescence imaging of nuclei. Compounds (1 mM stock solutions) were serially diluted in half-log steps from the highest test concentration (1 micromol), and assayed over 10 concentrations with a maximum assay concentration of 0.1% DMSO. Automated fluorescence microscopy was carried out using a Molecular Devices ImageXpress Micro XL high-content imager, and images were collected with a 4× objective. 16-bit TIFF images were acquired and analyzed with MetaXpress 5.1.0.41 software.

OVCAR3 = test: OncoPanel cell proliferation assay, OVCAR3; conditions: for Cell Count Activity Area: OVCAR3, scale 0-10
Experimental: as §7

[1] = Homo sapiens, 72 h, 3-day incubation, read-out: Cell Count EC50
[2] = Homo sapiens, 72 h, 3-day incubation, read-out: Cell Count GI50
[3] = Homo sapiens, 72 h, 3-day incubation, read-out: Cell Count IC50

SMILES | Cell Count Activity Area (NCIH446) | Cell Count Activity Area (Hs 852.T) | Cell Count Activity Area (A101D) | Cell Count Activity Area (AGS) | Cell Count Activity Area (CEM-C1) | IC50 (CEM-C1) | Cell Count Activity Area (SCaBER) | Cell Count Activity Area (SNU-C2B) | Cell Count Activity Area (U-87 MG) | Cell Count Activity Area (AsPC-1) | Cell Count Activity Area (OVCAR3) | other results
CO[C@H]1C[C@@H]2CC[C@@H](C)[C@@](O)(O2)C(=O)C(=O)N2CCCC[C@H]2C(=O)O[C@H]([C@H](C)C[C@@H]2CC[C@@H](O)[C@H](OC)C2)CC(=O)[C@H](C)/C=C(\C)[C@@H](O)[C@@H](OC)C(=O)[C@H](C)C[C@H](C)/C=C/C=C/C=C/1C [Rapamycin, reference compound] | 1.69 | 1.43 | 2.92 | 5.67 | 3.61 | > 1000 nM | 5.25 | 1.99 | 3.79 | 1.48 | 2.08 | EC50 (NCIH446; Homo sapiens, NCI-H446, 72 h, NCIH446, 3-day incubation, read-out: Cell Count EC50): > 1000 nM; IC50 (NCIH446; Homo sapiens, NCI-H446, 72 h, NCIH446, 3-day incubation, read-out: Cell Count IC50): > 1000 nM; IC50 (SW684; Homo sapiens, 72 h, SW684, 3-day incubation, read-out: Cell Count IC50): > 1000 nM; Cell Count Activity Area (SW684; SW684, scale 0-10): 2.81; EC50 (Hs 852.T; [1]): > 1000 nM; GI50 (Hs 852.T; [2]): > 1000 nM; IC50 (Hs 852.T; [3]): > 1000 nM; IC50 (A101D; [3]): > 1000 nM; Cell Count Activity Area (DMS114; DMS114, scale 0-10): 4.14; IC50 (DMS114; Homo sapiens, DMS-114, 72 h, DMS114, 3-day incubation, read-out: Cell Count IC50): > 1000 nM; EC50 (SNU-C2B; [1]): > 1000 nM; GI50 (SNU-C2B; [2]): > 1000 nM; IC50 (SNU-C2B; [3]): > 1000 nM; IC50 (U-87 MG; [3]): > 1000 nM; EC50 (AsPC-1; Homo sapiens, ASPC1, 72 h, read-out: Cell Count EC50): > 1000 nM; GI50 (AsPC-1; Homo sapiens, ASPC1, 72 h, read-out: Cell Count GI50): > 1000 nM; IC50 (AsPC-1; Homo sapiens, ASPC1, 72 h, read-out: Cell Count IC50): > 1000 nM; IC50 (OVCAR3; Homo sapiens, OVCAR-3, 72 h, read-out: Cell Count IC50): > 1000 nM
CN[C@@H]1C[C@H]2O[C@@](C)([C@@H]1OC)n1c3ccccc3c3c4c(c5c6ccccc6n2c5c31)C(=O)NC4 [Staurosporine, reference compound] | 2.81 | 3.16 | 4.56 | 6.19 | 4.28 | 9.2 nM | 6.03 | 3.80 | 3.25 | 3.28 | 3.41 | GI50 (SW684; Homo sapiens, 72 h, SW684, 3-day incubation, read-out: Cell Count GI50): 0.95 nM; EC50 (DMS114; Homo sapiens, DMS-114, 72 h, DMS114, 3-day incubation, read-out: Cell Count EC50): 21 nM
